# Earlier results in article PMC2677997 (Bioorganic & medicinal chemistry, 2009).
# Test system: SNARE cleavage in neuronal cells
# Conditions: cited from earlier work
smiles,measurement,value
"O=C(/C=C/c1ccc(Cl)cc1Cl)NO [Compound 2, 2,4-dichlorocinnamic hydroxamic acid]",activity in a cellular assay,inactive or cytotoxic
